Reference: patent US5844102A, “Glycohydrolase inhibitors, their preparation and use thereof” (University of Maryland Baltimore County, priority 1994, dated 1998)
Read-outs that look alike come from different tables or passages of the source.

Assays:
[1] = molecular target: T1, isomaltase (bakers yeast) (Saccharomyces cerevisiae, UniProt P53051); test: isomaltase inhibition, p-nitrophenol glucopyranoside substrate; type: biochemical
T1 construct: purchased Sigma Chemical Company
Method: (§1) The enzymes α-glucosidase (yeast), β-glucosidase (almonds), isomaltase (bakers yeast) and α-mannosidase (jackbean) were purchased from Sigma Chemical Company. Glucoamylase was isolated by the present inventors by expressing the gene from Aspergillus awamori in yeast, by methods well known in the art. Enzyme assays were performed by using p-nitrophenol -α (or β)-glucopyranosides as substrate at 37° C. in phosphate buffer (0.05M, pH 6.8) for α (β)-glucosidase and isomaltase, and p-nitrophenol-α-mannopyranoside as substrate at 25° C. in citrate (0.05M, pH 4.5) buffer for α-mannosidase. Glucoamylase was assayed using maltose as substrate at 50° C. in sodium acetate buffer (0.05M, pH 4.5).
(§2) Michaelis-Menten constant, Km, was calculated using software Grafit (Erithacus Software Ltd.). Ki was calculated by plotting K^appm vs. [Inhibitor]. FIG. 2(a) represents a plot of K^appm vs. [Inhibitor], wherein the inhibitor is the monosaccharide sugar analog isofagomin, obtained for five different glycosidases. FIG. 2(b) represents a similar plot of K^appm vs. [Inhibitor], wherein the inhibitor is the disaccharide sugar analog of formula II, obtained for five different glycosidases.

[2] = system: glycohydrolase degradation of crop; test: agricultural crop treatment, glycohydrolase degradation; conditions: approximately 10 mg/kg of crop per day, several months of treatment
Method: A composition for treating agricultural crops containing approximately 10 mg/kg of crop per day of isofagomin is administered to a crop. After several months of treatment, the crop is analyzed.

[3] = molecular target: T2, Glucoamylase (Aspergillus awamori, UniProt P69327); test: glucoamylase inhibition, maltose substrate; type: biochemical
T2 construct: made in house; host or cells: yeast
T2 sequence (P69327 25-640): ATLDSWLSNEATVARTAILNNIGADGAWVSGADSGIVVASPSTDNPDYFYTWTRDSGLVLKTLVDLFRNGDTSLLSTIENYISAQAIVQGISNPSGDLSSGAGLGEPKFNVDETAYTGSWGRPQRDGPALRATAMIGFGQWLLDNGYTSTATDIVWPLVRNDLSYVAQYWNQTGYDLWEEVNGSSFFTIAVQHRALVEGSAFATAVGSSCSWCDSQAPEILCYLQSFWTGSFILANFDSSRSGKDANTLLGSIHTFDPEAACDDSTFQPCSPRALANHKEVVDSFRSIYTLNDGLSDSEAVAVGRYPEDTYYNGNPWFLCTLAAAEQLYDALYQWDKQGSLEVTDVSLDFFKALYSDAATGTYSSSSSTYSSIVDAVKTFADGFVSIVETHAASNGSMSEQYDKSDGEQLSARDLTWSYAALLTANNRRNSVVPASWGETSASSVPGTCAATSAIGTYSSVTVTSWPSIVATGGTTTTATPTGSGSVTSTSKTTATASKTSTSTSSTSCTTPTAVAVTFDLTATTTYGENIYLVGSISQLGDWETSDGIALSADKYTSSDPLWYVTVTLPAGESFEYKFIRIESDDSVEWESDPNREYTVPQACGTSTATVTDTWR
Method: as §1
(§3) Michaelis-Menten constant, Km, was calculated using software Grafit (Erithacus Software Ltd.). Ki was calculated by plotting K^appm vs. [Inhibitor]. FIG. 2(a) represents a plot of K^appm vs. [Inhibitor], wherein the inhibitor is the monosaccharide sugar analog isofagomin, obtained for five different glycosidases.

[4] = molecular target: T3, α-glucosidase (yeast) (Saccharomyces cerevisiae, UniProt P53341); test: α-glucosidase inhibition, p-nitrophenol-α-glucopyranoside substrate; type: biochemical; conditions: 37° C., phosphate buffer 0.05M, pH 6.8; read-out: Ki (inhibition constant), α-Glucosidase
T3 construct: purchased Sigma Chemical Company
T3 sequence (P53341 whole entry): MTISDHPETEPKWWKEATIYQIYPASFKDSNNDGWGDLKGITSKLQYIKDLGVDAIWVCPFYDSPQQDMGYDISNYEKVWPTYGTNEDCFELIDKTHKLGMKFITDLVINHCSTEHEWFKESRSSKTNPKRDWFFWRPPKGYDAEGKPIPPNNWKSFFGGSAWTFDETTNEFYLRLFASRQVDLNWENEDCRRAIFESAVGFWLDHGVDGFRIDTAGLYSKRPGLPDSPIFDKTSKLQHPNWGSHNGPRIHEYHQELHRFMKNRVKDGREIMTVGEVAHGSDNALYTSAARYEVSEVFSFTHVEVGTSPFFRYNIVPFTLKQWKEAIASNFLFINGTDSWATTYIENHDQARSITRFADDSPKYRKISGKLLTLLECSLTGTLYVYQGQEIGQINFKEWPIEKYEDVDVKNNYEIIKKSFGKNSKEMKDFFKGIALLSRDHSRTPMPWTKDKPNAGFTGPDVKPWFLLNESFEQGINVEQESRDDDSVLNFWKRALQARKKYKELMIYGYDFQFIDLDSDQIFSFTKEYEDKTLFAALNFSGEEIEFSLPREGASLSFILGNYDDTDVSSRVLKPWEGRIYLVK
Method: as §1, §3

[5] = molecular target: β-glucosidase (almonds); test: β-glucosidase inhibition, p-nitrophenol-β-glucopyranoside substrate; type: biochemical; conditions: for Ki: 37° C., phosphate buffer 0.05M, pH 6.8, read-out: Ki (inhibition constant), β-Glucosidase; for inhibition of β-glucosidase, in words: hydrochloride
Method: as §1, §2

[6] = molecular target: T4, α-mannosidase (jackbean) (Canavalia ensiformis, UniProt C0HJB3); test: α-mannosidase inhibition, p-nitrophenol-α-mannopyranoside substrate; type: biochemical; conditions: 25° C., citrate buffer 0.05M, pH 4.5; read-out: Ki (inhibition constant), α-Mannosidase
T4 construct: purchased Sigma Chemical Company
T4 sequence (C0HJB3 1-562 limits assumed): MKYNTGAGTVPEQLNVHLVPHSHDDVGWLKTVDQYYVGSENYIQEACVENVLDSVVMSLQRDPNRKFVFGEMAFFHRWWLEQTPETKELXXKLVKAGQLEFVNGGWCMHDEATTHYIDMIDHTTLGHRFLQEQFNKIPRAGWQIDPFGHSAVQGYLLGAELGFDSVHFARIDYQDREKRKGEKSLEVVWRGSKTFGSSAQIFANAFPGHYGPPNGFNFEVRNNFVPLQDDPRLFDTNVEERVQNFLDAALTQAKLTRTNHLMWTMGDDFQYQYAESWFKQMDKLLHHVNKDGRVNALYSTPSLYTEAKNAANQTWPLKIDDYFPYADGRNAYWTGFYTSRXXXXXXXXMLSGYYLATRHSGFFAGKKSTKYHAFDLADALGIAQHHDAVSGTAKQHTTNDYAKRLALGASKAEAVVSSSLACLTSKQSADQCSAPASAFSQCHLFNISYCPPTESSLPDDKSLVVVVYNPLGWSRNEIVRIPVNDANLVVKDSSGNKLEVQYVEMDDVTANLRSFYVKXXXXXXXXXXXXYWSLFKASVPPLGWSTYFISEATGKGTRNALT
T4 sequence (C0HJB3 563-981 limits assumed): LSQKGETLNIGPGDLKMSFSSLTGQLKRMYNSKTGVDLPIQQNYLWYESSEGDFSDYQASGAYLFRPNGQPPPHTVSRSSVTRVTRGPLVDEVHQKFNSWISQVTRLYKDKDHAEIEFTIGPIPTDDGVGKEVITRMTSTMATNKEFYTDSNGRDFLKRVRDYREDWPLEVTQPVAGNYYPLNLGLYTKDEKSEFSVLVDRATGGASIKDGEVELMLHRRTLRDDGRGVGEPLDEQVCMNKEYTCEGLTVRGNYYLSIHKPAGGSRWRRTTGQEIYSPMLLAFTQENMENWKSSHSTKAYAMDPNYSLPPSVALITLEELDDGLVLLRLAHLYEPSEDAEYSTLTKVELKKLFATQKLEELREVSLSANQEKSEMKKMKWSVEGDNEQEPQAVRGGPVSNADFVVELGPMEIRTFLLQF
Method: as §1, §3

[7] = system: cellulase degradation of wood; test: wood treatment, cellulase degradation; conditions: approximately 10 mg/kg of wood per day, several months of treatment
Method: A wood treatment composition containing approximately 10 mg/kg of wood per day of isofagomin is administered to a piece of wood. After several months of treatment, the piece of wood is analyzed.

[8] = molecular target: T5, lysosomal α-glucosidase (Rattus norvegicus, UniProt Q6P7A9); conditions: cited from earlier work
T5 construct: host or cells: liver (in vivo)
T5 sequence (Q6P7A9 70-953): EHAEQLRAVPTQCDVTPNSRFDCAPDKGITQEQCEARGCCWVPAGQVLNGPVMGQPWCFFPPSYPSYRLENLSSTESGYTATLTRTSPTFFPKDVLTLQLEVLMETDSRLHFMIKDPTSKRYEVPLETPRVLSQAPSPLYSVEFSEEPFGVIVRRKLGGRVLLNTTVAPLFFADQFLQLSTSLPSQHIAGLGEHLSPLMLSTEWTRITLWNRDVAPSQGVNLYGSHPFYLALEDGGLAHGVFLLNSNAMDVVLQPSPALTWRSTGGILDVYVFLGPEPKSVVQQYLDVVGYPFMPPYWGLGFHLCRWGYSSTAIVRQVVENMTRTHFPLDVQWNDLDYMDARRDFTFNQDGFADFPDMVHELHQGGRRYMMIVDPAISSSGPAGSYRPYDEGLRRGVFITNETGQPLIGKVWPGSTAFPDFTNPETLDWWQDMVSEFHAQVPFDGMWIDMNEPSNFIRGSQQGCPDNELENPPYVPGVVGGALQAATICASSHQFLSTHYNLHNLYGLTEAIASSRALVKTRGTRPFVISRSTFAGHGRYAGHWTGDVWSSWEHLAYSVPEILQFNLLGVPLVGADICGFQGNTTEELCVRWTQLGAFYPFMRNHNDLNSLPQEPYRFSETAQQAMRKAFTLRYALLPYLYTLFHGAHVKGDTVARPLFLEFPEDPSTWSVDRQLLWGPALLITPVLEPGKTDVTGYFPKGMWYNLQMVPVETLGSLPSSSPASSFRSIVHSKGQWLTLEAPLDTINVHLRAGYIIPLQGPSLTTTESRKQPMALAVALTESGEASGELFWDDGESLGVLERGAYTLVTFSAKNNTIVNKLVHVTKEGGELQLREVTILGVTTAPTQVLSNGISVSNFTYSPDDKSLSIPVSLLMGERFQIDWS

[9] = in vivo; cited from earlier work
[10] = 37° C., phosphate buffer 0.05M, pH 6.8, read-out: Ki (inhibition constant), Isomaltase
[11] = maltose substrate, 50° C., sodium acetate buffer 0.05M, pH 4.5, read-out: Ki (inhibition constant), Glucoamylase

T1 sequence (P53051 whole entry): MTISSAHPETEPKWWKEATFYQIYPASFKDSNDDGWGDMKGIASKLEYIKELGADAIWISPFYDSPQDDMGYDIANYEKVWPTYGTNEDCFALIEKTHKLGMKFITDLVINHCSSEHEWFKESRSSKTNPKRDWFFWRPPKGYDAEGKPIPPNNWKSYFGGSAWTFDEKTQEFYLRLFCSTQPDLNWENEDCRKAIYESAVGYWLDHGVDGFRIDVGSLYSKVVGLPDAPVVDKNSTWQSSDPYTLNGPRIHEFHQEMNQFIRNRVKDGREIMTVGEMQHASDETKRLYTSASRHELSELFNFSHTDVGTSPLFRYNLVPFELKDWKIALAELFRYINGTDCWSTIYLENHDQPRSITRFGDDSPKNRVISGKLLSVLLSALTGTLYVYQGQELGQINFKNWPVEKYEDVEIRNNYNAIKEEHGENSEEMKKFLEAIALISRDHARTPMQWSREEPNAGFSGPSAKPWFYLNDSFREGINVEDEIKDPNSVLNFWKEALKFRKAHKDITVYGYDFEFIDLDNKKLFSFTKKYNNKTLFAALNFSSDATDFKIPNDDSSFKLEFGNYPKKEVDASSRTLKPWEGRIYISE

Cl.OC[C@H]1CNC[C@@H](O)[C@@H]1O [MB, (3R,4R,5R)-3,4-dihydroxy-5-hydroxymethyl-piperidine hydrochloride]
Ki [1, 10]: 7.2 µM
glycohydrolase degradation of treated crop [2]: No glycohydrolase degradation is detected
Ki [3, 11]: 3.7 µM
Ki [4]: 85.9 µM
Ki [5]: 0.11 µM
mode of inhibition of β-glucosidase (Lineweaver-Burk plot) ([5]; FIG. 1(a), three inhibitor concentrations): competitive inhibition
inhibition of β-glucosidase, in words [5]: surprisingly strong inhibitor
inhibition of β-glucosidase, in words ([5]; listed as monosaccharide analog): particularly strong inhibitor
Ki [6]: 775 µM
cellulase degradation of treated wood [7]: No cellulase degradation is detected

O[C@H]1[C@H](O)[C@@H](O)CN2CC[C@H](O)[C@H]12 [Castanospermine]
accumulation of lysosomal glycogen ([8]; at the minimum effective dose (1 mg/kg)): Accumulation of lysosomal glycogen has been found
minimum effective dose required to reduce the glycemic response to sucrose [9]: 1 mg/kg

OC[C@H]1NC[C@H](O)[C@@H](O)[C@@H]1O [Deoxynojirimycin, reference compound]
Ki [1]: 11.2 µM
Ki [3, 11]: 9.8 µM

OC[C@H]1NC[C@@H](O)[C@@H](O)[C@@H]1O [Deoxymannojirimycin, reference compound]
Ki [1]: 49.3 µM
Ki [3, 11]: 66 µM

CO[C@H]1O[C@H](CN2C[C@H](O)[C@@H](O)[C@H](O)[C@H]2CO)[C@@H](O)[C@H](O)[C@H]1O [MDL, 1,5-dideoxy-1,5-[(6-deoxy-1-O-methyl-6-α,D-glucopyranosyl)imino]-D-glucitol]
effect on liver lysosomal α-glucosidase activity or glycogen accumulation ([8]; dose 10-fold higher than required to reduce the glycemic response to sucrose): did not affect

CO[C@H]1O[C@H](CCN2C[C@H](CO)[C@@H](O)[C@H](O)C2)[C@@H](O)[C@H](O)[C@H]1O [TMJ, Methyl 6,7-dideoxy-7-[(3R,4R,5R)-3,4-dihydroxy-5-hydroxymethyl-piperidinyl]-α-D-gluco-heptopyranoside]
Ki [1, 10]: 103 µM
Ki [3]: 0.063 µM
Ki [4]: 58.8 µM
Ki [6]: 1230 µM

C[C@H]1O[C@H](O[C@H]2[C@H](O)[C@@H](O)[C@@H](O[C@H]3[C@H](O)[C@@H](O)C(O)O[C@@H]3CO)O[C@@H]2CO)[C@H](O)[C@@H](O)[C@@H]1N[C@H]1C=C(CO)[C@@H](O)[C@H](O)[C@H]1O (stereo partly shown) [Acarbose, acarbose, reference compound]
Ki [1]: > 100 µM
Ki [6]: 7600 µM
